In PubChem BioAssay AID602427 (Sanford-Burnham Center for Chemical Genomics, 2012):
Active and inactive are the calls of the source.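 The calls were made as follows: active = EC50 at or below 20 micromolar; inactive = the rest.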

Target: Neurotensin receptor type 1 (Homo sapiens) (UniProt P30989)
Assay: NTR1 agonists, beta-arrestin recruitment, SAR follow-up, orthogonal assay for NTR1 agonist project, cell-based, luminescence, CHO-K1 NTSR1 PathHunter (AID 602427);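 also: agonist potency for NTR1 activation where higher luminescence means more arrestin recruitment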

Sequence of Neurotensin receptor type 1 (Homo sapiens) (P30989 whole entry, looked up): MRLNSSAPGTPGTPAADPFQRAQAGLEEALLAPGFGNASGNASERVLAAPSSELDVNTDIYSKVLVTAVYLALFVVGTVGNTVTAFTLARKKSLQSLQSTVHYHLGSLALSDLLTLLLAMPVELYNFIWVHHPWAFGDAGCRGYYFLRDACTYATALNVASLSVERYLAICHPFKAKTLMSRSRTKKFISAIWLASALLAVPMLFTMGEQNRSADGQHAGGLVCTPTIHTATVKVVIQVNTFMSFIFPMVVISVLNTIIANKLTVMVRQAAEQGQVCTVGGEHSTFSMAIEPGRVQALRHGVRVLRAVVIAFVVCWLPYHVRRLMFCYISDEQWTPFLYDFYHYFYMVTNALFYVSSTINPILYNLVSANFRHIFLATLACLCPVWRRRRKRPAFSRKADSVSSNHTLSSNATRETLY

EC50 | SMILES
inactive | CC(C)C[C@H](NC(=O)c1cn(-c2ccnc3ccccc23)c2c(OCc3ccccc3)cccc12)C(=O)O
> 33 µM (inactive) | COc1ccc(Cn2cc3c(-c4ccc(OC)cc4)nnc-3c3ccccc32)cc1
> 33 µM (inactive) | COc1cc2c3nnc(-c4ccccc4)c-3cn(Cc3ccc(C)cc3)c2cc1OC
> 33 µM (inactive) | CC(C)C[C@H](NC(=O)c1cn(-c2ccnc3ccccc23)c2ccccc12)C(=O)O
> 33 µM (inactive) | Cc1ccc(-c2nnc3c4cc5c(cc4n(Cc4ccc(F)cc4)cc2-3)OCO5)cc1
inactive | COc1cc2c3nnc(-c4ccc(C)cc4)c-3cn(Cc3ccccc3)c2cc1OC
> 33 µM (inactive) | CCn1cc(C(=O)c2ccc(OC)cc2)c(=O)c2ccccc21
> 33 µM (inactive) | COc1ccccc1N1CCN(c2nc(C3CCC3)nc3ccccc23)CC1
0.546 µM | COc1ccccc1-c1cc(C(=O)N[C@@H](CC(C)C)C(=O)O)nn1-c1ccnc2cc(Cl)ccc12
> 33 µM (inactive) | COc1cc2c3nnc(-c4ccc(Cl)cc4)c-3cn(Cc3ccccc3)c2cc1OC
> 33 µM (inactive) | COc1cc2c3nnc(-c4ccc(F)cc4)c-3cn(Cc3cccc(N(C)C)c3)c2cc1OC
> 33 µM (inactive) | COc1ccc(N2CCN(c3nc(C4CCC4)nc4cc(OC)c(OC)cc34)CC2)cc1
> 33 µM (inactive) | COc1ccc(-c2nc(C(=O)N[C@@H](CC(C)C)C(=O)O)cn2-c2ccnc3cc(Cl)ccc23)c(OC)c1
> 33 µM (inactive) | COc1ccccc1-c1nc(C(=O)N[C@@H](CC(C)C)C(=O)O)cn1-c1ccnc2ccccc12
> 33 µM (inactive) | COc1cccc(OC)c1-c1nc(C(=O)O)cn1-c1ccncc1
> 33 µM (inactive) | COc1ccc(-c2nnc3c4ccccc4n(Cc4ccc(C)cc4)cc2-3)cc1
> 33 µM (inactive) | COc1ccc(Cn2cc(C(=O)c3ccc(F)cc3)c(=O)c3cc(OC)c(OC)cc32)cc1
> 33 µM (inactive) | COc1cc2c3nnc(-c4ccc(F)cc4)c-3cn(Cc3ccccn3)c2cc1OC
15.5 µM | COc1ccc(-c2nnc3c4cc(OC)c(OC)cc4n(Cc4ccc(C)cc4)cc2-3)cc1
> 33 µM (inactive) | COc1cc2nc(C3CCC3)nc(N3CCN(c4ccccc4F)CC3)c2cc1OC
> 33 µM (inactive) | COc1cc2c3nnc(-c4ccc(F)cc4)c-3cn(CC3CC3)c2cc1OC

EC50 | SMILES
> 33 µM (inactive) | Clc1cccc(-n2ncc3c(N4CCN(c5ccccc5)CC4)ncnc32)c1
> 33 µM (inactive) | c1ccc(Cn2cc3c(-c4ccccc4)nnc-3c3ccccc32)cc1
> 33 µM (inactive) | Clc1ccc(-c2nnc3c4cc5c(cc4n(Cc4ccccc4)cc2-3)OCO5)cc1
> 33 µM (inactive) | Cc1ccc(Cn2cc3c(-c4ccc(C)c(C)c4)nnc-3c3cc4c(cc32)OCO4)cc1
> 33 µM (inactive) | Fc1ccc(Cn2cc3c(-c4ccc(F)cc4)nnc-3c3cc4c(cc32)OCO4)cc1
> 33 µM (inactive) | Clc1ccccc1-n1ncc2c(N3CCN(c4ccccc4)CC3)ncnc21
> 33 µM (inactive) | Cc1ccc(-n2ncc3c(N4CCN(c5ccc([N+](=O)[O-])cc5)CC4)ncnc32)c(C)c1
> 33 µM (inactive) | COc1ccccc1-c1nc(C(=O)N[C@@H](CC(C)C)C(=O)O)cn1-c1ccncc1
> 33 µM (inactive) | Cc1ccc(Cn2cc3c(-c4ccc(F)cc4)nnc-3c3cc4c(cc32)OCO4)cc1
> 33 µM (inactive) | Cc1ccc(/C=N/Nc2nc(-c3ccc(S(=O)(=O)N(C)C)cc3)cs2)cc1
> 33 µM (inactive) | N=c1c2ccccc2nc(SCc2ccc(Cl)cc2)n1Cc1ccccc1
> 33 µM (inactive) | Cc1ccc(-n2ncc3c(N4CCN(c5ccccc5)CC4)ncnc32)c(C)c1
> 33 µM (inactive) | Fc1ccc(-c2nnc3c4cc5c(cc4n(Cc4ccccc4)cc2-3)OCO5)cc1
> 33 µM (inactive) | COc1cc2c3nnc(-c4ccccc4)c-3cn(Cc3ccc(F)cc3)c2cc1OC
> 33 µM (inactive) | COc1cccc(OC)c1-c1cc(C(=O)O)nn1-c1ccnc2cc(Cl)ccc12
> 33 µM (inactive) | COc1ccc(-c2nnc3c4ccccc4n(Cc4ccc(F)cc4)cc2-3)cc1
> 33 µM (inactive) | COc1ccc2c(N3CCN(c4ccccc4OC)CC3)nc(C3CCC3)nc2c1
> 33 µM (inactive) | COc1ccc(-c2nnc3c4cc(OC)c(OC)cc4n(Cc4ccc(F)cc4)cc2-3)cc1
> 33 µM (inactive) | COc1cc2c3nnc(-c4ccc(F)cc4)c-3cn(Cc3ccc(F)cc3)c2cc1OC
> 33 µM (inactive) | CCN(CC)c1ccc(/C=N/Nc2nc(-c3ccc(S(=O)(=O)N(C)C)cc3)cs2)cc1
> 33 µM (inactive) | CCOc1cc2nc(-c3ccc(OC)c(OC)c3)nc(N3CCN(c4ccccc4F)CC3)c2cc1OC

EC50 | SMILES
> 33 µM (inactive) | COc1cc2nc(-c3ccccc3)nc(N3CCN(c4ccccc4OC)CC3)c2cc1OC
6.1 µM | COc1cccc(OC)c1-c1nc(C(=O)N[C@@H](CC(C)C)C(=O)O)cn1-c1ccnc2cc(Cl)ccc12
> 33 µM (inactive) | CCCSc1nc2cc(OC)c(OC)cc2c(=N)n1Cc1cccc(C(F)(F)F)c1
> 33 µM (inactive) | Cc1ccc(-c2nnc3c4cc5c(cc4n(Cc4ccccc4)cc2-3)OCO5)cc1
> 33 µM (inactive) | CC(C)C[C@H](NC(=O)c1cn(-c2ccnc3cc(Cl)ccc23)c2ccccc12)C(=O)O
> 33 µM (inactive) | COc1cc2c3nnc(-c4ccc(F)cc4)c-3cn(Cc3cccnc3)c2cc1OC
> 33 µM (inactive) | COc1ccc(C(=O)c2cn(Cc3ccc(F)cc3)c3ccccc3c2=O)cc1
> 33 µM (inactive) | COc1cc2c(=O)c(C(=O)c3ccc(F)cc3)cn(Cc3ccc(OC(F)(F)F)cc3)c2cc1OC
> 33 µM (inactive) | Cc1ccc(-c2nnc3c4cc5c(cc4n(Cc4ccc(F)cc4)cc2-3)OCO5)cc1C
> 33 µM (inactive) | COc1cc2c(=O)c(C(=O)c3ccc(F)cc3)cn(CCc3ccccc3)c2cc1OC
> 33 µM (inactive) | COc1ccc2c(c1)c(=O)c(C(=O)c1ccc(F)cc1)cn2Cc1ccc(F)cc1
> 33 µM (inactive) | COc1cc2c3nnc(-c4ccc(F)cc4)c-3cn(Cc3ccc(Cl)cc3)c2cc1OC
> 33 µM (inactive) | COc1ccc(-c2nnc3c4ccccc4n(CCc4ccccc4)cc2-3)cc1
> 33 µM (inactive) | COc1cc2c(=O)c(C(=O)c3ccc(F)cc3)cn(Cc3ccc(N(C)C)cc3)c2cc1OC
> 33 µM (inactive) | COc1ccc(-c2nnc3c4ccccc4n(Cc4ccccc4)cc2-3)cc1
> 33 µM (inactive) | COc1cccc(OC)c1-c1cc(C(=O)NC2(C(=O)O)C3CC4CC(C3)CC2C4)nn1-c1ccc(C(=O)N(C)CCCN(C)C)cc1C(C)C (stereo not drawn)
> 33 µM (inactive) | COc1cc2ncnc(N3CCN(c4ccccc4OC)CC3)c2cc1OC
18.2 µM | COc1cccc(OC)c1-c1nc(C(=O)N[C@@H](CC(C)C)C(=O)O)cn1-c1ccnc2ccccc12
> 33 µM (inactive) | CCOc1ccc(-c2nnc3c4cc(OC)c(OC)cc4n(Cc4ccc(C)cc4)cc2-3)cc1
> 33 µM (inactive) | COc1cc2nc(-c3ccccc3)nc(N3CCN(c4ccc(F)cc4)CC3)c2cc1OC
> 33 µM (inactive) | O=S(=O)(c1ccc(-c2csc(N/N=C/c3ccco3)n2)cc1)N1CCOCC1
